{"source": "ChEMBL document CHEMBL3132769", "about": "“Fragment growing to retain or alter the selectivity of anchored kinase hinge-binding fragments” (Medchemcomm, 2014)", "key": {"Homo sapiens [1]": {"organism": "Homo sapiens", "assay": "Inhibition of human full length PKA expressed in baculovirus assessed as substrate phosphorylation using fluorescence-labelled peptides as substrate at 9 uM after 90 mins by microfluidic peptide phosphorylation assay"}, "[2]": {"molecular_target": "Insulin receptor (Homo sapiens) (UniProt P06213)", "assay": "Inhibition of human INSR catalytic domain expressed in baculovirus assessed as substrate phosphorylation using fluorescence-labelled peptides as substrate at 9 uM after 90 mins by microfluidic peptide phosphorylation assay"}, "[3]": {"molecular_target": "MAP/microtubule affinity-regulating kinase 3 (Homo sapiens) (UniProt P27448)", "sequence (P27448 whole entry, looked up)": "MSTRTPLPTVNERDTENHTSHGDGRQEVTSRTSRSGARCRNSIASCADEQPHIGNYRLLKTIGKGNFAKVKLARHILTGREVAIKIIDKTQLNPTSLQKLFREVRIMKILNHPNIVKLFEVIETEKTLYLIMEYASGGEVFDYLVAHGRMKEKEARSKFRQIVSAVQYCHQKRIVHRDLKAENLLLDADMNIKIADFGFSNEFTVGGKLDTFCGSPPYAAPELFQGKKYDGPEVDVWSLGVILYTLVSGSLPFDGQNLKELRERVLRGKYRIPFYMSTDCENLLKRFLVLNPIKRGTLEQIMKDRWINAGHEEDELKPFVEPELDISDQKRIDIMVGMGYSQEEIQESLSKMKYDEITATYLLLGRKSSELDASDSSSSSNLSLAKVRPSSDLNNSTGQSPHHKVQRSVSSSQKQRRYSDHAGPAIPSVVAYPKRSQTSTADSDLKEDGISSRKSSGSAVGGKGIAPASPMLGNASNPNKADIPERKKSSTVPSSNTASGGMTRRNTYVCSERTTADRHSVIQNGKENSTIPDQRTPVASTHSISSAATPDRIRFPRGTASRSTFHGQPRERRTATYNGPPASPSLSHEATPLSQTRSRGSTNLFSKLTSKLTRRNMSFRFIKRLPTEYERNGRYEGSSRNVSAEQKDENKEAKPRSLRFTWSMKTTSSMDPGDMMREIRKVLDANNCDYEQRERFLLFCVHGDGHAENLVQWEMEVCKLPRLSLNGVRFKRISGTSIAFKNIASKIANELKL", "assay": "Inhibition of human full length c-TAK1 expressed in Escherichia coli cell assessed as substrate phosphorylation using fluorescence-labelled peptides as substrate at 9 uM after 90 mins by microfluidic peptide phosphorylation assay"}, "[4]": {"molecular_target": "Receptor-type tyrosine-protein kinase FLT3 (Homo sapiens) (UniProt P36888)", "assay": "Inhibition of human FLT3 catalytic domain expressed in baculovirus assessed as substrate phosphorylation using fluorescence-labelled peptides as substrate at 9 uM after 90 mins by microfluidic peptide phosphorylation assay"}, "[5]": {"molecular_target": "T1, Mitogen-activated protein kinase 13 (Homo sapiens) (UniProt O15264)", "T1 sequence (whole entry)": "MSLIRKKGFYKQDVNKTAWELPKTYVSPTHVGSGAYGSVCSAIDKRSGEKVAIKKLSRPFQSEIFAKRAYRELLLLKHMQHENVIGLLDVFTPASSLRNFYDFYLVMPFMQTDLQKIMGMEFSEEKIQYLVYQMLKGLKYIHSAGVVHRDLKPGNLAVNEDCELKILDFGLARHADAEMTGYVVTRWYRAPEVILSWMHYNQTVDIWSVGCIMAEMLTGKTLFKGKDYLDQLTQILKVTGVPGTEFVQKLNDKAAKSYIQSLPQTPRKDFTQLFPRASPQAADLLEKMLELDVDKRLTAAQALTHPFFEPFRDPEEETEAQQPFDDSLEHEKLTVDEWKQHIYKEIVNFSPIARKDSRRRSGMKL", "assay": "Inhibition of human full length p38 delta expressed in Escherichia coli cell assessed as substrate phosphorylation using fluorescence-labelled peptides as substrate at 95 uM after 90 mins by microfluidic peptide phosphorylation assay"}, "[6]": {"molecular_target": "Mitogen-activated protein kinase 1 (Homo sapiens) (UniProt P28482)", "sequence (P28482 whole entry)": "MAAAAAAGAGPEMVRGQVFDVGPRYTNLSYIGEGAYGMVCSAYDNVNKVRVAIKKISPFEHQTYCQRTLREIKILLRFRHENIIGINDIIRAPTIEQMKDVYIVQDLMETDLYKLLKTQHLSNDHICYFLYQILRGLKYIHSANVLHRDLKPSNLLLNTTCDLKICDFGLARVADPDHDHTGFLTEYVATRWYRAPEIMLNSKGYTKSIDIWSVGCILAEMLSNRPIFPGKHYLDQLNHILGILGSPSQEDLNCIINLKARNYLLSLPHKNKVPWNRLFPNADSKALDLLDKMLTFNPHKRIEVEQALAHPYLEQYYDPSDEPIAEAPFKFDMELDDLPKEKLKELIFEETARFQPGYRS", "assay": "Inhibition of human full length ERK2 expressed in Escherichia coli cell assessed as substrate phosphorylation using fluorescence-labelled peptides as substrate at 0.06 uM after 90 mins by microfluidic peptide phosphorylation assay"}, "[7]": {"molecular_target": "Tyrosine-protein kinase Lyn (Homo sapiens) (UniProt P07948)", "sequence (P07948 2-512 limits assumed)": "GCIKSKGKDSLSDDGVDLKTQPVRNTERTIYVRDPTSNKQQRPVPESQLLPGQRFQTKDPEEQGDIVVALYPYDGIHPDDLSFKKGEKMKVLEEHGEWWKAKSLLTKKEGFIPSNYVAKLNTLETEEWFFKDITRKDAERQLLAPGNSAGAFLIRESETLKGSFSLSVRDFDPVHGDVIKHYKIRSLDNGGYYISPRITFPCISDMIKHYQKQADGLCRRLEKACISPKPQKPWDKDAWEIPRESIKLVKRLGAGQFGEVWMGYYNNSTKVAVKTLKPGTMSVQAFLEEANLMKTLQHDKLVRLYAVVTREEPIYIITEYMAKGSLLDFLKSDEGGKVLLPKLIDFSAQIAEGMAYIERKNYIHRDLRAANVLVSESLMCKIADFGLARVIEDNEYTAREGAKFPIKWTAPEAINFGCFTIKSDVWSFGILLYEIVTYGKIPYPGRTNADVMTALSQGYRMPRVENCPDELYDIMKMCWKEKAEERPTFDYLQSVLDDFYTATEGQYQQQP", "details": "0.1 uM", "description": "Inhibition of human full length LYN expressed in baculovirus assessed as substrate phosphorylation using fluorescence-labelled peptides as substrate at 0.1 uM after 90 mins by microfluidic peptide phosphorylation assay"}, "[8]": {"molecular_target": "Fibroblast growth factor receptor 3 (Homo sapiens) (UniProt P22607)", "sequence (P22607 23-806 limits assumed)": "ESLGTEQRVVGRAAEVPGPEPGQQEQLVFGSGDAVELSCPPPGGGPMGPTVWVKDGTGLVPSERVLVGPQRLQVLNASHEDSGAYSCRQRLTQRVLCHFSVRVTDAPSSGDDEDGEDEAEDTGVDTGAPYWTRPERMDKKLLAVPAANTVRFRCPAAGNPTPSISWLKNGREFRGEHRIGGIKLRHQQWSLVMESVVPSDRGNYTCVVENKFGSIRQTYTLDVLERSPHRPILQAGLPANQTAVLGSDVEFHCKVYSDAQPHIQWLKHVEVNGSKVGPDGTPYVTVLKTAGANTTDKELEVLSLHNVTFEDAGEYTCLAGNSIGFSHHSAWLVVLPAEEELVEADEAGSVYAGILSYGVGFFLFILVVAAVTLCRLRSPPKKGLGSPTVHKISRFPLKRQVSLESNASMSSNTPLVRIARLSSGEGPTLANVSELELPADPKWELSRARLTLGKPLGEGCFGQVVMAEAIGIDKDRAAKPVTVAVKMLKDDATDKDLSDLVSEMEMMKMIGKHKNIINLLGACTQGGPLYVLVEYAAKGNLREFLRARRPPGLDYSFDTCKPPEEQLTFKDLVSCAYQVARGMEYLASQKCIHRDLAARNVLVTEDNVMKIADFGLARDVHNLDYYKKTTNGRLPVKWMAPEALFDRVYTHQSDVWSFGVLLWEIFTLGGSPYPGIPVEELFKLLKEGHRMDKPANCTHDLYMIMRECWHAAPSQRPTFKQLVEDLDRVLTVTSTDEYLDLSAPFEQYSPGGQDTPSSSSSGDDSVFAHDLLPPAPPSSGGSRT", "assay": "Inhibition of human FGFR3 catalytic domain expressed in baculovirus assessed as substrate phosphorylation using fluorescence-labelled peptides as substrate at 420 uM after 90 mins by microfluidic peptide phosphorylation assay"}, "[9]": {"molecular_target": "Calcium/calmodulin-dependent protein kinase type II subunit beta (Homo sapiens) (UniProt Q13554)", "sequence (Q13554 whole entry, the tested form may be a part)": "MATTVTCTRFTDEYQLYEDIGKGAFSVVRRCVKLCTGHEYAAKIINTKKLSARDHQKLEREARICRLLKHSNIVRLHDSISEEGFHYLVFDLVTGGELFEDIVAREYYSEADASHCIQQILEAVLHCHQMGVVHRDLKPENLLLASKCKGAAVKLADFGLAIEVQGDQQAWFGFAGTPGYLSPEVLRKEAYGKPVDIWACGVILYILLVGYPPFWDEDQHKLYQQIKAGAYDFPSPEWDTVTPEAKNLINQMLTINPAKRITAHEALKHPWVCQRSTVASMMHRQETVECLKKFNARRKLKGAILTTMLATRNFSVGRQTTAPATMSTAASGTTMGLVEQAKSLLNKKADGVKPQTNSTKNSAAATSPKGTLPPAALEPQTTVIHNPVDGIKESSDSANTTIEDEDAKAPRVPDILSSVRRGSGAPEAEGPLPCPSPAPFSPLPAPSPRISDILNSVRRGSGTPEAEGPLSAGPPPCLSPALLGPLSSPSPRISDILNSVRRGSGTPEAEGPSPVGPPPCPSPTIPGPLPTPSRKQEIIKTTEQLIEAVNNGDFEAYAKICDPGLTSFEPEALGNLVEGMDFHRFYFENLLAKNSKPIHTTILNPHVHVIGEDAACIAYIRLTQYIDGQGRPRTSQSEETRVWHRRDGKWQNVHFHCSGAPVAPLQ", "assay": "Inhibition of human CAMK2 beta catalytic domain expressed in baculovirus assessed as substrate phosphorylation using fluorescence-labelled peptides as substrate at 420 uM after 90 mins by microfluidic peptide phosphorylation assay"}, "Homo sapiens [10]": {"organism": "Homo sapiens", "assay": "Inhibition of human P70S6K catalytic domain expressed in baculovirus assessed as substrate phosphorylation using fluorescence-labelled peptides as substrate at 70 uM after 90 mins by microfluidic peptide phosphorylation assay"}, "[11]": {"molecular_target": "Vascular endothelial growth factor receptor 2 (Homo sapiens) (UniProt P35968)", "assay": "Inhibition of human KDR cytoplasmic domain expressed in baculovirus assessed as substrate phosphorylation using fluorescence-labelled peptides as substrate at 0.2 uM after 90 mins by microfluidic peptide phosphorylation assay"}, "[12]": {"molecular_target": "T2, Testis-specific serine/threonine-protein kinase 1 (Homo sapiens) (UniProt Q9BXA7)", "T2 sequence (whole entry)": "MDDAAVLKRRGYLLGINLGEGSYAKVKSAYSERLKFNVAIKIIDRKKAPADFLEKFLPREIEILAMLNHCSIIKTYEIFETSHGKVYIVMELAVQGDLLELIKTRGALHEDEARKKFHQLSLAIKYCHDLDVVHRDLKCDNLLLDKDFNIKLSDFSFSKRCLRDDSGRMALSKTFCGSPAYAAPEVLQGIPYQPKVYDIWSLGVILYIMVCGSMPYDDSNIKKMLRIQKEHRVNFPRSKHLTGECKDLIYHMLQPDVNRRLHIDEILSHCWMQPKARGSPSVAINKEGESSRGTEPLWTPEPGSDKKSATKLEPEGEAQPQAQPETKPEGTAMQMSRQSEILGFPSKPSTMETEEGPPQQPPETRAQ", "assay": "Inhibition of human full length TSSK1 expressed in baculovirus assessed as substrate phosphorylation using fluorescence-labelled peptides as substrate at 2 uM after 90 mins by microfluidic peptide phosphorylation assay"}, "[13]": {"molecular_target": "RAC-alpha serine/threonine-protein kinase (Homo sapiens) (UniProt P31749)", "sequence (P31749 whole entry, the tested form may be a part)": "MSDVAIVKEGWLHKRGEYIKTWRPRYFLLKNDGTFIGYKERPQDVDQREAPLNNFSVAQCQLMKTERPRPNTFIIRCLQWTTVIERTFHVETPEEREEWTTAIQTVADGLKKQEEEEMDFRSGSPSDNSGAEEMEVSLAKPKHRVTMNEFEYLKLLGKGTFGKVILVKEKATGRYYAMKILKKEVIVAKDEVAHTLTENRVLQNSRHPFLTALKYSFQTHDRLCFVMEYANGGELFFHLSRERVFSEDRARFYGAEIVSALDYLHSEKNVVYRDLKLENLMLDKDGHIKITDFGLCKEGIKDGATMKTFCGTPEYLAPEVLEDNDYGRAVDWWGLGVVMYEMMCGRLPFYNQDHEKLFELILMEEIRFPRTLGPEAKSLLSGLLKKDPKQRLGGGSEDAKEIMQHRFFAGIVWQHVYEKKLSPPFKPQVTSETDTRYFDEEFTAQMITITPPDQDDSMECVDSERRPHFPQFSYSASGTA", "assay": "Inhibition of human AKT1 catalytic domain expressed in baculovirus assessed as substrate phosphorylation using fluorescence-labelled peptides as substrate at 2 uM after 90 mins by microfluidic peptide phosphorylation assay"}, "[14]": {"molecular_target": "T3, Protein kinase C zeta type (Homo sapiens) (UniProt Q05513)", "T3 sequence (whole entry)": "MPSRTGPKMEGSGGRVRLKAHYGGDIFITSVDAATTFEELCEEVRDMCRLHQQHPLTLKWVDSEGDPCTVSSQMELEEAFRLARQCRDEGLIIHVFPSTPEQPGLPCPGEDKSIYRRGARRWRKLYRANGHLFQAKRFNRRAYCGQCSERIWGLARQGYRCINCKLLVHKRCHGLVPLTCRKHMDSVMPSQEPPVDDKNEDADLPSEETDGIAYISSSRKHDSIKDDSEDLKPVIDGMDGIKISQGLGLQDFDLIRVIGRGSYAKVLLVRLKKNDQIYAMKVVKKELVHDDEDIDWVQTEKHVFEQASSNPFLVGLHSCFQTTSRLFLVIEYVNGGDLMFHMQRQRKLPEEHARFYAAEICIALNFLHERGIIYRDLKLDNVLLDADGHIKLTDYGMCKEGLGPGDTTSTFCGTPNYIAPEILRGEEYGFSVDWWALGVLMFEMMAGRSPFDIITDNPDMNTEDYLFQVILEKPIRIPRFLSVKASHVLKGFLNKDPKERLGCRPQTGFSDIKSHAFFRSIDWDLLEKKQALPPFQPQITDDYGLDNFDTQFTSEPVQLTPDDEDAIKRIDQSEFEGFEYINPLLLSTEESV", "assay": "Inhibition of human full length PKC zeta expressed in baculovirus assessed as substrate phosphorylation using fluorescence-labelled peptides as substrate at 2 uM after 90 mins by microfluidic peptide phosphorylation assay"}, "[15]": {"molecular_target": "Protein kinase C alpha type (Homo sapiens) (UniProt P17252)", "assay": "Inhibition of human truncated PKC alpha expressed in baculovirus assessed as substrate phosphorylation using fluorescence-labelled peptides as substrate at 8 uM after 90 mins by microfluidic peptide phosphorylation assay"}, "[16]": {"molecular_target": "Platelet-derived growth factor receptor alpha (Homo sapiens) (UniProt P16234)", "assay": "Inhibition of human PDGFR alpha catalytic domain expressed in baculovirus assessed as substrate phosphorylation using fluorescence-labelled peptides as substrate at 8 uM after 90 mins by microfluidic peptide phosphorylation assay"}, "[17]": {"molecular_target": "MAP/microtubule affinity-regulating kinase 3 (Homo sapiens) (UniProt P27448)", "assay": "Inhibition of human full length c-TAK1 expressed in Escherichia coli cell assessed as substrate phosphorylation using fluorescence-labelled peptides as substrate at 1000 uM after 90 mins by microfluidic peptide phosphorylation assay"}}}
{"smiles": "NCC1CN(c2ncnc3[nH]c4cnccc4c23)CCO1", "note": "(configuration not stated)", "values": [{"measurement": "inhibition", "setting": "Homo sapiens [1]", "value": 33.5, "unit": "%"}, {"measurement": "inhibition", "setting": "[2]", "value": 2.5, "unit": "%"}, {"measurement": "inhibition", "setting": "[3]", "value": 30, "unit": "%"}, {"measurement": "inhibition", "setting": "[4]", "value": 89.5, "unit": "%"}]}
{"smiles": "NCCc1ccc(-c2ncnc3[nH]cnc23)cc1", "values": [{"measurement": "inhibition", "setting": "[5]", "value": 13, "unit": "%"}]}
{"smiles": "NC1(Cc2ccc(Cl)cc2)CCN(c2ncnc3[nH]ccc23)CC1", "values": [{"measurement": "inhibition", "setting": "[6]", "value": 4.5, "unit": "%"}]}
{"smiles": "C[C@H](CN(C)C)Oc1nc(Nc2cc3cccc(Cl)c3cn2)cnc1C#N", "values": [{"measurement": "inhibition", "setting": "[7]", "value": 0, "unit": "%"}]}
{"smiles": "c1nc(N2CCOCC2)c2nc[nH]c2n1", "values": [{"measurement": "inhibition", "setting": "[8]", "value": 95, "unit": "%"}, {"measurement": "inhibition", "setting": "[9]", "value": 20.5, "unit": "%"}]}
{"smiles": "CNCc1ccc(-c2ncnc3[nH]cnc23)cc1", "values": [{"measurement": "inhibition", "setting": "Homo sapiens [10]", "value": 29.5, "unit": "%"}]}
{"smiles": "Clc1ccc(C2(c3ccc(-c4ncnc5[nH]cnc45)cc3)CCNCC2)cc1", "values": [{"measurement": "inhibition", "setting": "[11]", "value": 9, "unit": "%"}]}
{"smiles": "NC1CCN(c2ncnc3[nH]ccc23)CC1", "values": [{"measurement": "inhibition", "setting": "[12]", "value": 0, "unit": "%"}, {"measurement": "inhibition", "setting": "[13]", "value": 83, "unit": "%"}, {"measurement": "inhibition", "setting": "[14]", "value": 20.5, "unit": "%"}]}
{"smiles": "NCC1CCN(c2ncnc3[nH]ccc23)CC1", "values": [{"measurement": "inhibition", "setting": "[15]", "value": 56.5, "unit": "%"}, {"measurement": "inhibition", "setting": "[16]", "value": 0, "unit": "%"}]}
{"smiles": "c1cnc2[nH]ccc2c1", "values": [{"measurement": "inhibition", "setting": "[17]", "value": 77, "unit": "%"}]}
